{"source": "patent US20140024527A1", "about": "“HERBICIDAL PYRAZINONES” (E I DU DE NEMOURS AND COMPANY, priority 2011, published 2014)", "assay_in_all_cases": "Test B postemergence", "type_in_all_cases": "in vivo", "settings_in_all_cases": "scale 0 to 100", "key": {"[1]": {"test_system": "green foxtail (Setaria viridis)", "excerpt": "(§1) Seeds of plant species selected from blackgrass (Alopecurus myosuroides), downy bromegrass (Bromus tectorum), green foxtail (Setaria viridis), Italian ryegrass (Lolium multiflorum), wheat (Triticum aestivum), wild oat (Avena fatua), galium (Galium aparine), bermudagrass (Cynodon dactylon), Surinam grass (Brachiaria decumbens), cocklebur (Xanthium strumarium), corn (Zea mays), large crabgrass (Digitaria sanguinalis), woolly cupgrass (Eriochloa villosa), giant foxtail (Setaria faberii), goosegrass (Eleusine indica), johnsongrass (Sorghum halepense), kochia (Kochia scoparia), lambsquarters (Chenopodium album), morningglory (Ipomoea coccinea), yellow nutsedge (Cyperus esculentus), pigweed (Amaranthus retroflexus), ragweed (Ambrosia elatior), soybean (Glycine max), velvetleaf (Abutilon theophrasti), barley (Hordeum vulgare), canarygrass (Phalaris minor), chickweed (Stellaria media), deadnettle (Lamium amplexicaule) and windgrass (Apera spica-venti) were planted in pots containing Redi-Earth® planting medium (Scotts Company, Marysville, Ohio, USA) comprising spaghnum peat moss, vermiculite, wetting agent and starter nutrients and treated postemergence with test compounds formulated in a non-phytotoxic solvent mixture which included a surfactant. Plants ranged in height from 2 to 18 cm (1- to 4-leaf stage).\n(§2) Treated plants and controls were maintained in a greenhouse for 13 to 15 days, after which time all species were compared to controls and visually evaluated. Plant response ratings, summarized in Table B, are based on a scale of 0 to 100 where 0 is no effect and 100 is complete control. A dash (-) response means no test result."}, "[2]": {"test_system": "cocklebur (Xanthium strumarium)", "excerpt": "as §1, §2"}, "barley (Hordeum vulgare)": {"test_system": "barley (Hordeum vulgare)", "excerpt": "as §1, §2"}, "[3]": {"test_system": "Surinam grass (Brachiaria decumbens)", "excerpt": "as §1, §2"}, "soybean (Glycine max)": {"test_system": "soybean (Glycine max)", "excerpt": "as §1, §2"}, "[4]": {"test_system": "wheat (Triticum aestivum)", "excerpt": "as §1, §2"}, "[5]": {"test_system": "lambsquarters (Chenopodium album)", "excerpt": "as §1, §2"}, "[6]": {"test_system": "bermudagrass (Cynodon dactylon)", "excerpt": "as §1, §2"}, "[7]": {"test_system": "velvetleaf (Abutilon theophrasti)", "excerpt": "as §1, §2"}, "[8]": {"test_system": "goosegrass (Eleusine indica)", "excerpt": "as §1, §2"}, "corn (Zea mays)": {"test_system": "corn (Zea mays)", "excerpt": "as §1, §2"}, "[9]": {"test_system": "windgrass (Apera spica-venti)", "excerpt": "as §1, §2"}, "kochia (Kochia scoparia)": {"test_system": "kochia (Kochia scoparia)", "excerpt": "as §1, §2"}, "[10]": {"test_system": "canarygrass (Phalaris minor)", "excerpt": "as §1, §2"}, "[11]": {"test_system": "ragweed (Ambrosia elatior)", "excerpt": "as §1, §2"}, "[12]": {"test_system": "morningglory (Ipomoea coccinea)", "excerpt": "as §1, §2"}, "[13]": {"test_system": "johnsongrass (Sorghum halepense)", "excerpt": "as §1, §2"}, "[14]": {"test_system": "downy bromegrass (Bromus tectorum)", "excerpt": "as §1, §2"}, "[15]": {"test_system": "large crabgrass (Digitaria sanguinalis)", "excerpt": "as §1, §2"}, "galium (Galium aparine)": {"test_system": "galium (Galium aparine)", "excerpt": "as §1, §2"}, "[16]": {"test_system": "pigweed (Amaranthus retroflexus)", "excerpt": "as §1, §2"}, "[17]": {"test_system": "woolly cupgrass (Eriochloa villosa)", "excerpt": "as §1, §2"}}}
{"compound": "COCCn1c(-c2cc(F)cc(F)c2)c(Cl)nc(C(=O)C2=C(O)CCCC2=O)c1=O", "note": "[Compound 6, 5-chloro-6-(3,5-difluorophenyl)-3-[(2-hydroxy-6-oxo-1-cyclohexen-1-yl)carbonyl]-1-(2-methoxyethyl)-2(1H)-pyrazinone]", "values": [{"measurement": "Plant response rating, Foxtail, Green", "setting": "[1]; 31 g ai/ha", "value": 50}, {"measurement": "Plant response rating, Foxtail, Green", "setting": "[1]; 62 g ai/ha", "value": 70}, {"measurement": "Plant response rating, Foxtail, Green", "setting": "[1]; 125 g ai/ha", "value": 85}, {"measurement": "Plant response rating, Foxtail, Green", "setting": "[1]; 250 g ai/ha", "value": 98}, {"measurement": "Plant response rating, Cocklebur", "setting": "[2]; 31 g ai/ha", "value": 50}, {"measurement": "Plant response rating, Cocklebur", "setting": "[2]; 62 g ai/ha", "value": 75}, {"measurement": "Plant response rating, Cocklebur", "setting": "[2]; 125 g ai/ha", "value": 95}, {"measurement": "Plant response rating, Cocklebur", "setting": "[2]; 250 g ai/ha", "value": 100}, {"measurement": "Plant response rating, Barley", "setting": "barley (Hordeum vulgare); 31 g ai/ha", "value": 25}, {"measurement": "Plant response rating, Barley", "setting": "barley (Hordeum vulgare); 62 g ai/ha", "value": 35}, {"measurement": "Plant response rating, Barley", "setting": "barley (Hordeum vulgare); 125 g ai/ha", "value": 50}, {"measurement": "Plant response rating, Barley", "setting": "barley (Hordeum vulgare); 250 g ai/ha", "value": 70}, {"measurement": "Plant response rating, Surinam Grass", "setting": "[3]; 31 g ai/ha", "value": 75}, {"measurement": "Plant response rating, Surinam Grass", "setting": "[3]; 62 g ai/ha", "value": 75}, {"measurement": "Plant response rating, Surinam Grass", "setting": "[3]; 125 g ai/ha", "value": 85}, {"measurement": "Plant response rating, Surinam Grass", "setting": "[3]; 250 g ai/ha", "value": 98}, {"measurement": "Plant response rating, Soybean", "setting": "soybean (Glycine max); 31 g ai/ha", "value": 45}, {"measurement": "Plant response rating, Soybean", "setting": "soybean (Glycine max); 62 g ai/ha", "value": 65}, {"measurement": "Plant response rating, Soybean", "setting": "soybean (Glycine max); 125 g ai/ha", "value": 70}, {"measurement": "Plant response rating, Soybean", "setting": "soybean (Glycine max); 250 g ai/ha", "value": 95}, {"measurement": "Plant response rating, Wheat", "setting": "[4]; 31 g ai/ha", "value": 45}, {"measurement": "Plant response rating, Wheat", "setting": "[4]; 62 g ai/ha", "value": 45}, {"measurement": "Plant response rating, Wheat", "setting": "[4]; 125 g ai/ha", "value": 50}, {"measurement": "Plant response rating, Wheat", "setting": "[4]; 250 g ai/ha", "value": 60}, {"measurement": "Plant response rating, Lambsquarters", "setting": "[5]; 31 g ai/ha", "value": 80}, {"measurement": "Plant response rating, Lambsquarters", "setting": "[5]; 62 g ai/ha", "value": 98}, {"measurement": "Plant response rating, Lambsquarters", "setting": "[5]; 125 g ai/ha", "value": 100}, {"measurement": "Plant response rating, Lambsquarters", "setting": "[5]; 250 g ai/ha", "value": 100}, {"measurement": "Plant response rating, Bermudagrass", "setting": "[6]; 31 g ai/ha", "value": 5}, {"measurement": "Plant response rating, Bermudagrass", "setting": "[6]; 62 g ai/ha", "value": 45}, {"measurement": "Plant response rating, Bermudagrass", "setting": "[6]; 125 g ai/ha", "value": 75}, {"measurement": "Plant response rating, Bermudagrass", "setting": "[6]; 250 g ai/ha", "value": 95}, {"measurement": "Plant response rating, Velvetleaf", "setting": "[7]; 31 g ai/ha", "value": 60}, {"measurement": "Plant response rating, Velvetleaf", "setting": "[7]; 62 g ai/ha", "value": 65}, {"measurement": "Plant response rating, Velvetleaf", "setting": "[7]; 125 g ai/ha", "value": 80}, {"measurement": "Plant response rating, Velvetleaf", "setting": "[7]; 250 g ai/ha", "value": 80}, {"measurement": "Plant response rating, Goosegrass", "setting": "[8]; 31 g ai/ha", "value": 75}, {"measurement": "Plant response rating, Goosegrass", "setting": "[8]; 62 g ai/ha", "value": 80}, {"measurement": "Plant response rating, Goosegrass", "setting": "[8]; 125 g ai/ha", "value": 95}, {"measurement": "Plant response rating, Goosegrass", "setting": "[8]; 250 g ai/ha", "value": 98}, {"measurement": "Plant response rating, Corn", "setting": "corn (Zea mays); 31 g ai/ha", "value": 45}, {"measurement": "Plant response rating, Corn", "setting": "corn (Zea mays); 62 g ai/ha", "value": 45}, {"measurement": "Plant response rating, Corn", "setting": "corn (Zea mays); 125 g ai/ha", "value": 65}, {"measurement": "Plant response rating, Corn", "setting": "corn (Zea mays); 250 g ai/ha", "value": 80}, {"measurement": "Plant response rating, Windgrass", "setting": "[9]; 31 g ai/ha", "value": 60}, {"measurement": "Plant response rating, Windgrass", "setting": "[9]; 62 g ai/ha", "value": 75}, {"measurement": "Plant response rating, Windgrass", "setting": "[9]; 125 g ai/ha", "value": 80}, {"measurement": "Plant response rating, Windgrass", "setting": "[9]; 250 g ai/ha", "value": 80}, {"measurement": "Plant response rating, Kochia", "setting": "kochia (Kochia scoparia); 31 g ai/ha", "value": 5}, {"measurement": "Plant response rating, Kochia", "setting": "kochia (Kochia scoparia); 62 g ai/ha", "value": 40}, {"measurement": "Plant response rating, Kochia", "setting": "kochia (Kochia scoparia); 125 g ai/ha", "value": 40}, {"measurement": "Plant response rating, Kochia", "setting": "kochia (Kochia scoparia); 250 g ai/ha", "value": 45}, {"measurement": "Plant response rating, Canarygrass", "setting": "[10]; 31 g ai/ha", "value": 55}, {"measurement": "Plant response rating, Canarygrass", "setting": "[10]; 62 g ai/ha", "value": 55}, {"measurement": "Plant response rating, Canarygrass", "setting": "[10]; 125 g ai/ha", "value": 70}, {"measurement": "Plant response rating, Canarygrass", "setting": "[10]; 250 g ai/ha", "value": 90}, {"measurement": "Plant response rating, Ragweed", "setting": "[11]; 31 g ai/ha", "value": 40}, {"measurement": "Plant response rating, Ragweed", "setting": "[11]; 62 g ai/ha", "value": 60}, {"measurement": "Plant response rating, Ragweed", "setting": "[11]; 125 g ai/ha", "value": 65}, {"measurement": "Plant response rating, Ragweed", "setting": "[11]; 250 g ai/ha", "value": 98}, {"measurement": "Plant response rating, Morningglory", "setting": "[12]; 31 g ai/ha", "value": 95}, {"measurement": "Plant response rating, Morningglory", "setting": "[12]; 62 g ai/ha", "value": 100}, {"measurement": "Plant response rating, Morningglory", "setting": "[12]; 125 g ai/ha", "value": 100}, {"measurement": "Plant response rating, Morningglory", "setting": "[12]; 250 g ai/ha", "value": 100}, {"measurement": "Plant response rating, Johnsongrass", "setting": "[13]; 31 g ai/ha", "value": 80}, {"measurement": "Plant response rating, Johnsongrass", "setting": "[13]; 62 g ai/ha", "value": 80}, {"measurement": "Plant response rating, Johnsongrass", "setting": "[13]; 125 g ai/ha", "value": 85}, {"measurement": "Plant response rating, Johnsongrass", "setting": "[13]; 250 g ai/ha", "value": 100}, {"measurement": "Plant response rating, Bromegrass, Downy", "setting": "[14]; 31 g ai/ha", "value": 15}, {"measurement": "Plant response rating, Bromegrass, Downy", "setting": "[14]; 62 g ai/ha", "value": 35}, {"measurement": "Plant response rating, Bromegrass, Downy", "setting": "[14]; 125 g ai/ha", "value": 50}, {"measurement": "Plant response rating, Bromegrass, Downy", "setting": "[14]; 250 g ai/ha", "value": 60}, {"measurement": "Plant response rating, Crabgrass, Large", "setting": "[15]; 31 g ai/ha", "value": 75}, {"measurement": "Plant response rating, Crabgrass, Large", "setting": "[15]; 62 g ai/ha", "value": 85}, {"measurement": "Plant response rating, Crabgrass, Large", "setting": "[15]; 125 g ai/ha", "value": 95}, {"measurement": "Plant response rating, Crabgrass, Large", "setting": "[15]; 250 g ai/ha", "value": 98}, {"measurement": "Plant response rating, Galium", "setting": "galium (Galium aparine); 31 g ai/ha", "value": 40}, {"measurement": "Plant response rating, Galium", "setting": "galium (Galium aparine); 62 g ai/ha", "value": 50}, {"measurement": "Plant response rating, Galium", "setting": "galium (Galium aparine); 125 g ai/ha", "value": 60}, {"measurement": "Plant response rating, Galium", "setting": "galium (Galium aparine); 250 g ai/ha", "value": 65}, {"measurement": "Plant response rating, Pigweed", "setting": "[16]; 31 g ai/ha", "value": 80}, {"measurement": "Plant response rating, Pigweed", "setting": "[16]; 62 g ai/ha", "value": 95}, {"measurement": "Plant response rating, Pigweed", "setting": "[16]; 125 g ai/ha", "value": 98}, {"measurement": "Plant response rating, Pigweed", "setting": "[16]; 250 g ai/ha", "value": 98}, {"measurement": "Plant response rating, Cupgrass, Woolly", "setting": "[17]; 31 g ai/ha", "value": 90}, {"measurement": "Plant response rating, Cupgrass, Woolly", "setting": "[17]; 62 g ai/ha", "value": 100}, {"measurement": "Plant response rating, Cupgrass, Woolly", "setting": "[17]; 125 g ai/ha", "value": 100}, {"measurement": "Plant response rating, Cupgrass, Woolly", "setting": "[17]; 250 g ai/ha", "value": 100}]}
